According to patent publication US6696409B1 (priority 1996, dated 2004):
Marks after values point to notes of the source that are not given here.

How the values were obtained:
Y1 receptors = biological target: T1, Y1 receptors (Rattus norvegicus, UniProt P21555); assay: Pressor response (increase in blood pressure) in anaesthetised rats (postjunctional activity); assay type: in vivo
T1 construct: from tissue; host or cells: anaesthetised Wistar rat, vasculature (in vivo)
T1 sequence (P21555 1-382): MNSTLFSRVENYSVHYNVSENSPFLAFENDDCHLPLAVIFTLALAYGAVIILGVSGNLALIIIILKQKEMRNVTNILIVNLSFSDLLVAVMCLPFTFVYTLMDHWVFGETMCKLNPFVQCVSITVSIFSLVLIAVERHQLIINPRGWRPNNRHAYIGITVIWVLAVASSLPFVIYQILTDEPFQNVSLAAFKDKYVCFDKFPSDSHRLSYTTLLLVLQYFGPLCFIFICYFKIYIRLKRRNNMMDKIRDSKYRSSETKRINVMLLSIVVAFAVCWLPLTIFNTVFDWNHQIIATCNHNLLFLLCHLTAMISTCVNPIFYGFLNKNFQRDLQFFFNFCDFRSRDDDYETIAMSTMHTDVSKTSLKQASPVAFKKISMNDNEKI
Protocol: Experiments were carried out on adult rats (Wistar) of both sexes (250-350 g), anaesthetised with sodium pentobarbitone (Nembutal, Boehringer-Ingleheim; 60 mg/kg, i.p.). The trachea was cannulated and the animal artificially ventilated. The femoral vein was cannulated for administration of peptides and further doses of anaesthetic. The left femoral artery was cannulated to record arterial pressure. Both vagus nerves were cut. […] The electrocardiogram was measured using needle electrodes and monitored on one channel of an osciloscope. Pulse interval (the period between successive beats of the heart) was recorded beat-by-beat by triggering from ECG. Pulse interval and arterial pressure were recorded on the pen recorder.
Dose-response curves were constructed from group data for all rats. Because of the long time-course of action of the peptides tested, not all peptides were given to each rat.
As an indication of prejunctional activity two parameters were measured; the maximum percent inhibition of the increase in pulse interval evoked by stimulation of the vagus nerve following injection of peptide and the time to half recovery of this effect (T50). For pressor action, an indicator of postjunctional activity, two parameters were also measured; the peak pressor response following injection of peptide and the duration of the increase in blood pressure. […] Results were analysed using a one-way ANOVA.

human Y2 receptor = biological target: T2, human Y2 receptor (Homo sapiens, UniProt P49146); assay: [125I]NPY receptor binding assay on SMS-MSN cells
T2 construct: host or cells: SMS-MSN cells (thawed, needle-disrupted cells)
T2 sequence (P49146 1-381): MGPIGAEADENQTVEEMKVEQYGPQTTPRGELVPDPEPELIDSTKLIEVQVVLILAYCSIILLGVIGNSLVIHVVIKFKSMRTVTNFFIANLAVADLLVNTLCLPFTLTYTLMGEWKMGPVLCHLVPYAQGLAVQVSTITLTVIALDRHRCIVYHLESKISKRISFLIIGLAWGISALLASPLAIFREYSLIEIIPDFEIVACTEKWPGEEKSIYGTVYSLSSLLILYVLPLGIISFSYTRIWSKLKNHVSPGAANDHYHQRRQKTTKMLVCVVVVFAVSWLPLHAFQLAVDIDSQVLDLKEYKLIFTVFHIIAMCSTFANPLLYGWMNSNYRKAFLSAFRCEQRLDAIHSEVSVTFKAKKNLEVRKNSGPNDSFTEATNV
Protocol: (§1) SK-N-MC cells expressing the human Y1 receptor and SMS-MSN cells expressing the human Y2 receptor were obtained from the ATCC. They were cultured in 1:1 DMEM:Ham's F12 medium (ICN) containing 10% fetal calf serum, 0.1% non-essential amino acids, 0.2 mM glutamine, and 0.056% sodium bicarbonate. Confluent cells were harvested in scraping and pellets were stored at −80° C. On the day of use cells were thawed, washed once in binding buffer salts, passed several times through a 22 ga. needle, and the protein content was assayed using bicinchoninic acid (BCA kit, Pierce).
(§2) Just before use, plates were filtered and washed twice with 50 mM Tris-HCI pH 7.4/0.1% BSA. […] Binding was terminated by filtration. Filters were washed twice by rapid filtration with […] volumes of 50 mM Tris-HCI pH 7.4/0.1% BSA at 2° C., and counted on an LKB gamma counter. Specific binding was analysed by non-linear regression using a single-site fitting function (Graphpad Prism). Non-specific binding was defined by binding in the presence of 1 μM competitor.

human Y1 receptor = biological target: T3, human Y1 receptor (Homo sapiens, UniProt P25929); assay: [125I]NPY receptor binding assay on SK-N-MC cells
T3 construct: host or cells: SK-N-MC cells (thawed, needle-disrupted cells)
T3 sequence (P25929 1-384): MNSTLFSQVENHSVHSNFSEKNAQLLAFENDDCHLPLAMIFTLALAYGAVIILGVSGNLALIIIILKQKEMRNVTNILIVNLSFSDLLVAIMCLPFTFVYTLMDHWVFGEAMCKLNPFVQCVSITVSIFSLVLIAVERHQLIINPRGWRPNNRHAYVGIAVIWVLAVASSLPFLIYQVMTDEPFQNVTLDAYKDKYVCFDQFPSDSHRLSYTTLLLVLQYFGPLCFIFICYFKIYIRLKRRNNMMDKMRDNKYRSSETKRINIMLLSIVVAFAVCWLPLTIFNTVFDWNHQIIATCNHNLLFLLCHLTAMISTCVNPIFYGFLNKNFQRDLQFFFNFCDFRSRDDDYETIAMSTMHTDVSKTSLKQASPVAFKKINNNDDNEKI
Protocol: as §1, §2

Y2-like receptors = biological target: T4, Y2-like receptors (Rattus norvegicus, UniProt Q9ERC0); assay: Inhibition of the vagally evoked increase in pulse interval in anaesthetised rats (prejunctional activity); assay type: in vivo; details: compared with Ac[Leu28,Leu31]NPY(24-36)
T4 construct: from tissue; host or cells: anaesthetised Wistar rat, cardiac vagal nerve endings (in vivo)
T4 sequence (Q9ERC0 1-381): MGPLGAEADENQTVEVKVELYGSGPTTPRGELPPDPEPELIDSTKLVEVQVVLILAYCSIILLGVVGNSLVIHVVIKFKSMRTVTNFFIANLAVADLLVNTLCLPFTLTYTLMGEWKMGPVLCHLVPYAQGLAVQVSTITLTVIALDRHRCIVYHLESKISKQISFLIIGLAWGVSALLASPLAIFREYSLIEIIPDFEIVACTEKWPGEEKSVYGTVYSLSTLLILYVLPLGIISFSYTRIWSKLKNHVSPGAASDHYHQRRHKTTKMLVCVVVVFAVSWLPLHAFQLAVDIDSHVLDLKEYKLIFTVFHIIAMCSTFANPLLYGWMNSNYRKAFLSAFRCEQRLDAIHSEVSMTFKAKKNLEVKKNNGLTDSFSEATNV
Protocol: Experiments were carried out on adult rats (Wistar) of both sexes (250-350 g), anaesthetised with sodium pentobarbitone (Nembutal, Boehringer-Ingleheim; 60 mg/kg, i.p.). The trachea was cannulated and the animal artificially ventilated. The femoral vein was cannulated for administration of peptides and further doses of anaesthetic. The left femoral artery was cannulated to record arterial pressure. Both vagus nerves were cut. […] The frequency was chosen to increase pulse interval by approximately 100 ms, a submaximal effect on this variable. The electrocardiogram was measured using needle electrodes and monitored on one channel of an osciloscope. Pulse interval (the period between successive beats of the heart) was recorded beat-by-beat by triggering from ECG. Pulse interval and arterial pressure were recorded on the pen recorder.
Dose-response curves were constructed from group data for all rats. Because of the long time-course of action of the peptides tested, not all peptides were given to each rat. Usually however, each rat received neuropeptide Y and two other peptides.
As an indication of prejunctional activity two parameters were measured; the maximum percent inhibition of the increase in pulse interval evoked by stimulation of the vagus nerve following injection of peptide and the time to half recovery of this effect (T50). For pressor action, an indicator of postjunctional activity, two parameters were also measured; the peak pressor response following injection of peptide and the duration of the increase in blood pressure. These indices give a reliable measure of the actions of a peptide at pre- and postjunctional sites, and have been used previously in this laboratory for this purpose; Potter et al., 1989; Potter et al., 1991). Results were analysed using a one-way ANOVA.

[1] = system: Y2-like receptors mediating inhibition of transmitter release from renal nerves; assay: Increase of renal vascular resistance elicited by renal sympathetic nerve stimulation; assay type: in vivo, dog; details: 40 nmol dose; FIG. 1
Protocol: Experiments were carried out in six, adult, mongrel dogs of both sexes weighing between 18 and 26 kg. The dogs were anaesthetised with a bolus injection of sodium pentobarbitone (36 mg/kg intravenous; Nembutal, Boehringer Ingelheim) and then maintained on an infusion (2-3 mg/kg/hr). The animal was artificially ventilated, maintained at constant temperature and blood pressure and heart rate were monitored continuously.
The left kidney was exposed retroperitoneally and renal arterial blood flow was monitored continuously (Pernow & Lundberg, 1989a), using a transonic flow probe (Transonic System Inc., N.Y.). Postganglionic nerves to the kidney were isolated, cut and placed over bipolar, platinum electrodes for stimulation (1-10 Hz, 5-10 V, 1-5 msec).
The renal nerve was stimulated over a range of frequencies (1-10 Hz) for 30 secs and a frequency-response curve constructed. The responses were measured at the peak change in flow. […] Responses were reported as change in vascular resistance.

[2] = biological target: T5, neuropeptide Y Y2 receptor subtype (Homo sapiens, UniProt P49146); details: SMS-KAN cells; cited from earlier work
T5 construct: host or cells: SMS-KAN human neuroblastoma cells
T5 sequence (P49146 1-381): T2 sequence (P49146 1-381)

[3] = biological target: T6, human neuropeptide Y Y1 receptor (Homo sapiens, UniProt P25929); details: fibroblast cells; cited from earlier work
T6 sequence (P25929 1-384): T3 sequence (P25929 1-384)

[4] = biological target: T7, neuropeptide Y Y1 receptor type (Homo sapiens, UniProt P25929); details: SK-N-MC cells; cited from earlier work
T7 construct: host or cells: SK-N-MC human cells
T7 sequence (P25929 1-384): T3 sequence (P25929 1-384)

[5] = anaesthetised rats, †: No response to 10 nmole dose

Substance	Increase in BP (rel to NPY) (Y1 receptors; [5])	also measured
AcNPY24-36 [reference compound]	0†	–
Ac-ARHYLNLLTRQRY-NH2 [Ac[A24,L28,L31]NPY24-36]	0†	IC50 (human Y2 receptor): 19.3 nM
Ac-LRHALNLLTRQRY-NH2 [Ac[A27,L28,L31]NPY24-36]	0†	–
Ac-LRHYLNLLTRQRY-NH2 [Ac[L28,L31]NPY24-36] [listing 1 of 2 here]	–	IC50 (human Y1 receptor): > 100 nM
Ac-ARHALNLLTRQRY-NH2 [Ac[A24,A27,L28,L31]NPY24-36]	0†	Direct effect on the circulation (Y1 receptors; 40 nmol dose): no direct effect on the circulation; Inhibition of the effect of vagal stimulation on heart rate, in words (Y2-like receptors): enhanced in vivo activity at Y2 receptors; Affinity for NPY Y2 receptors, in words (human Y2 receptor): high affinity for NPY Y2 receptors; Inhibition of the increase of renal vascular resistance elicited by renal nerve stimulation [1]: almost completely inhibited the effect of nerve stimulation
Ac[L28,I30]NPY24-36 (Ac-LRHYLNIITRQRY-NH2; ends and bridges not checked; UniProt P01303 52-64, looked up, variant I28L L30I)	0†	–
Ac-LRHYLNLLTRQRY-NH2 [Ac[L28,L31]NPY24-36] [listing 2 of 2 here]	–	Increase in BP (rel to NPY) (Y1 receptors; rat, in vivo): 0†; Affinity for the neuropeptide Y Y2 receptor subtype, in words [2]: significant affinity; Stimulation of the Y1 receptor to induce an increase in cytosolic calcium [3]: did not stimulate; Affinity for the neuropeptide Y Y1 receptor type, in words [4]: no affinity
Ac-LRAYLNLLTRQRY-NH2 [Ac[A26,L28,L31]NPY24-36]	0†	–
Ac-LAHYLNLLTRQRY-NH2 [Ac[A25,L28,L31]NPY24-36]	0†	–
Ac-LRHYLNALTRQRY-NH2 [Ac[L28,A30,L31]NPY24-36]	0†	–
Ac-ARAALNAATRQRY-NH2 [Ac[A24,26,27,30,31,L28]NPY24-36]	0†	Inhibition of the effect of vagal stimulation on heart rate, in words (Y2-like receptors): enhanced in vivo activity at Y2 receptors; IC50 (human Y1 receptor): > 1000 nM
Ac[A26,27,L28,31]NPY24-36 (Ac-LRAALNLLTRQRY-NH2; ends and bridges not checked)	–	Inhibition of the effect of vagal stimulation on heart rate, in words (Y2-like receptors): enhanced in vivo activity at Y2 receptors
Ac-LAHYRNLLTRQRY-NH2 [Ac[A25,R28,L31]NPY24-36]	0†	–
Ac-LRHYLNLATRQRY-NH2 [Ac[L28,A31]NPY24-36]	0†	–
Ac-LRHYANLLTRQRY-NH2 [Ac[A28,L31]NPY24-36]	0†	–
Ac-LRHYLNLLARQRY-NH2 [Ac[L28,L31,A32]NPY24-36]	0†	–
Ac-LRHYLALLTRQRY-NH2 [Ac[L28,A29,L31]NPY24-36]	0†	–
